Experimental data published in patent publication US20260027103A1, “PHARMACEUTICAL COMPOSITIONS COMPRISING A QUINOLONE COMPOUND FOR IRRITABLE BOWEL SYNDROME” (OTSUKA PHARMACEUTICAL CO., LTD., priority 2022, published 2026).

Columns and labels:
[1] = system: restraint stress (RS) rat model; assay: Restraint stress (RS) rat model: body weight, food intake, fecal pellet output; format: in vivo, Sprague-Dawley (SD) rats
From the text: Male Sprague-Dawley (SD) rats, weighting 200-250 g were purchased from Charles River Laboratories Beijing and housed in an SPF grade animal facility of OSRI in individual ventilated cages (IVC), with 3 rats per cage. All animals were maintained with a 12-hour light/dark cycle and had free access to rodent chow and water. All animal study procedures were in accordance with Animal Welfare Regulations and approved by the Institutional Animal Care and Use Committee (IACUC) of OSRI.
Rats (from group #2 and group #3) were submitted to a 2-hour restraint in a plastic cylinder daily in the PM for 10 consecutive days (D1 to D10). Rats from the control group (group #1) remained in their individual cages, undisturbed throughout the entire experiment. After 3 days of repeated RS modeling, from D4 to D10, the rats from group #2 and group #3 were treated in the morning (4h ahead of PM restraint) with vehicle (5% AG) and the test substance (2.5 mg/kg) respectively for 7 consecutive days. Fecal pellet output was used to estimate distal colonic motility as a validated index (Hong S et al., Gut 2009, 58:202-210). During the 2-hour restraint period, the rat's fecal pellet output was collected and counted, same for the rats in control group during the same 2-hour mock observation period.

histamine = assay: Urine histamine level by ELISA in RS model; format: in vivo, Sprague Dawley Rats; conditions: rat, 2.5 mg/kg PO, day 7 (4 days post treatment), p<0.01 vs RS group, FIG. 6
Method: (§1) Sprague Dawley Rats were submitted to a 2h restraint in a plastic cylinder daily for 7 consecutive days as described above. In control group, the rats were remained in an individual cage, undisturbed, throughout the experiment.
Urine samples were collected every day after the restraint. A plastic dish was placed underneath restraint tube and the urine sample was collected. It is immediately transferred into a tube and stored at-800C until further analysis. Histamine was measured with the Histamine ELISA Kit ((CAT #: D751012, BBI) according to the manufacturer's instructions as follows.
Calculate the required number of slats in advance, and take out the kit 30 minutes before the test and restore it to room temperature. • 2. Add 50 μL of standard working liquid and test sample to each reaction hole. The standard needs to be re-drilled. 50 μL of biotin-labeled histamine antibody working solution was added to each reaction well immediately, and the plate was sealed and incubated at 37° C. for 45 min. • 3. […] OD value was measured with 450 nm wavelength of enzyme label instrument. • 9. Draw a standard curve with the concentration of standard substance as the horizontal coordinate and absorbance as the vertical coordinate. • 10. Statistical significance was either calculated by two-tailed T-test (visceral sensitivity on day 3) or one-way ANOVA using Dunnett's multiple comparison. […]

[2] = system: restraint stress (RS) rat model; assay: Visceromotor response to colorectal distention in RS model; format: in vivo, Sprague Dawley Rats; conditions: 2.5 mg/kg PO, day 7 (4 days post dose), p<0.05 vs RS group, FIG. 5
Method: as §1
Colonic distension—A polyethylene balloon (3 cm long, 1.5 cm max. diameter) was secured to tubing attached to a blood pressure meter to be used to perform colonic distension. The balloon was lubricated and placed into the rat's distal colon so that the tip of the balloon was 2 cm proximal to the anus. Using the blood pressure meter distension device, rats were restrained in a plastic containment device and allowed to acclimate for 10 min before testing. The rats received phasic distension (0-100 mmHg in 5-mmHg ascending increments) of the colon until the first contraction of the testicles, tail or abdominal musculature occurred. This visualization was performed by three independent observers. […] Compliance of the colon was not measured given the rapid distension protocol used in this study. The colonic distensions were repeated three times with 5-min interstimulus intervals and the mean pressures at the nociceptive threshold were recorded for each rat.
Statistical significance was either calculated by two-tailed T-test (visceral sensitivity on day 3) or one-way ANOVA using Dunnett's multiple comparison. P<0.05 was considered statistically significant.

Cc1c(-c2cnc(N)c(C#N)c2)c(F)cc2c(=O)c(C(=O)O)cn(C3CC3)c12 [OPS-2071, 1-cyclopropyl-6-fluoro-1,4-dihydro-8-methyl-7-(2-amino-3-cyano-5-pyridyl)-4-oxo-3-quinoline-carboxylic acid]
body weight / body weight change (BWC) % in RS-IBS model ([1]; 2.5 mg/kg PO QD for 7 days from D4, group #3 vs. RS vehicle group #2, FIGS. 1 and 2): body weight drop caused by restraint stress is improved
fecal pellet output during 2-hour restraint ([1]; 2.5 mg/kg PO from day 4, group #3 vs. group #2, FIG. 3): a decrease of the fecal pellet output was observed
food intake (appetite) in RS model ([1]; 2.5 mg/kg PO, monitored from 3 days post treatment initiation, group #3 vs. group #2): protective effect on decreased appetite
urine histamine level (histamine): decreased
visceral sensitivity (visceromotor response to colorectal distention, mmHg) [2]: a decrease in visceral sensitivity
